These are literature values, as cited in patent publication US20220265684A1, “COMPOSITIONS AND METHODS FOR TREATING ULCERATIVE COLITIS” (9 METERS BIOPHARMA, INC., priority 2021, published 2022).

The conditions of this data set: after administration of 100 mg (1 tablet); Actarit PI.

Broadly, the Cmax is the highest concentration seen after dosing. On to `Nc1ccc(CC(=O)O)cc1` [4-APAA, 4-aminophenylacetic acid], for which the “AUC0-∞” value was 4560 ng·h/mL and the Cmax was 2240 ng/mL.
